The results in this text go back to patent publication US20240246964A1 (Arbutus Biopharma Corporation, priority 2021, published 2024).

Each structure is given as a SMILES string.

Sequence of human PD-L1 (Q9NZQ7 19-290): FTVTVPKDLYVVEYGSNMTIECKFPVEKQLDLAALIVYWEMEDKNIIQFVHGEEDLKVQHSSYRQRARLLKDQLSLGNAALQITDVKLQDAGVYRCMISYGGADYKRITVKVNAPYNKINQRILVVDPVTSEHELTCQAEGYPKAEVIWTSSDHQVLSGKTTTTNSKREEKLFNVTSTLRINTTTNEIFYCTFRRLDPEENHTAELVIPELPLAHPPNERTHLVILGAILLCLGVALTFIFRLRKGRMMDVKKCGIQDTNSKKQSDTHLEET

This test addresses human PD-L1 (Homo sapiens (Human), UniProt Q9NZQ7). Description: T cell activation luciferase reporter cell culture system (T Cell Activation Assay). Format: cell-based. The note with it: luciferase reporter assay; PD-L1 aAPC/CHO-K1 cells with PD-1 effector Jurkat T cells.
One may read the EC50 as the concentration giving half of the maximal effect. A lower EC50 goes with higher potency in that assay. Compound `CNCc1ccc(C(=O)Nc2cccc(-c3ccnc(-c4ccc(CNC)c(OC)c4)c3Cl)c2Cl)nc1` [Example 694, N-(2-chloro-3-(3-chloro-2-(3-methoxy-4-((methylamino)methyl)phenyl)pyridine-4-yl)phenyl)-5-((methylamino)methyl)picolinamide] returned an EC50 of 69.7 nM.

On to `COc1cc(-c2nccc(-c3cccc(-c4cc(Cl)c(CNC[C@@H]5CCC(=O)N5)c(OC)n4)c3Cl)c2Cl)cc2c1CN(CCO)CC2` [Cmpd 124, (S)-5-((((4-chloro-6-(2-chloro-3-(3-chloro-2-(2-(2-hydroxyethyl)-8-methoxy-1,2,3,4-tetrahydroisoquinolin-6-yl)pyridin-4-yl)phenyl)-2-methoxypyridin-3-yl)methyl)amino)methyl)pyrrolidin-2-one], for which the EC50 was 36.3 nM.

In the case of `COc1cc(-c2nccc(-c3cccc(-c4ccc(CN5CC6(CNC(=O)C6)C5)c(OC)n4)c3Cl)c2Cl)ccc1CN[C@H]1CC[C@H](O)CC1` [Example 502, 2-((6-(2-Chloro-3-(3-chloro-2-(4-((((1r,4r)-4-hydroxycyclohexyl)-amino)-methyl)-3-methoxyphenyl)pyridin-4-yl)phenyl)-2-methoxypyridin-3-yl)methyl)-2,6-diazaspiro[3.4]octan-7-one], a half-maximal effect (EC50) was put at 28.9 nM. This EC50 and that of the compound before are within 1.5-fold of each other.

`COc1cc(-c2nccc(-c3cccc(-c4ccc(CNC5CCN(C(=O)CO)CC5)c(OC)n4)c3Cl)c2Cl)ccc1CN[C@H]1CC[C@H](O)CC1` [Example 539, 1-(4-(((6-(2-Chloro-3-(3-chloro-2-(4-((((1r,4r)-4-hydroxycyclohexyl)amino)methyl)-3-methoxyphenyl)pyridin-4-yl)phenyl)-2-methoxypyridin-3-yl)methyl)amino)piperidin-1-yl)-2-hydroxyethan-1-one]: the EC50 turned out to be 31.8 nM.

Take `COc1nc(-c2cccc(-c3ccnc(-c4ccc5c(c4)S(=O)(=O)CCN(C)C5)c3Cl)c2Cl)ccc1CNC[C@@H]1CCC(=O)N1` [Example 561, (S)-5-((((6-(2-Chloro-3-(3-chloro-2-(4-methyl-1,1-dioxido-2,3,4,5-tetrahydrobenzo[f][1,4]thiazepin-8-yl)pyridin-4-yl)phenyl)-2-methoxypyridin-3-yl)methyl)amino)methyl)pyrrolidin-2-one]: the EC50 was ≥ 10000 nM.

In the case of `COc1cc(-c2nccc(-c3cccc(-c4ccn5c(=O)c(CNC[C@@H]6CCC(=O)N6)cnc5c4)c3Cl)c2Cl)ccc1CNC[C@@H]1CCC(=O)N1` [Cmpd 1, 8-(2-chloro-3-(3-chloro-2-(3-methoxy-4-(((((S)-5-oxopyrrolidin-2-yl)methyl)amino)methyl)phenyl)pyridin-4-yl)phenyl)-3-(((((S)-5-oxopyrrolidin-2-yl)methyl)amino)methyl)-4H-pyrido[1,2-a]pyrimidin-4-one], the EC50 came out at 300 nM.

`COc1cc(-c2nccc(-c3cccc(-c4ccc(CN5CC6(C5)CN(C(C)=O)C6)c(OC)n4)c3Cl)c2Cl)cc2c1CN(CCCF)CC2` [Example 249, 1-(6-((6-(2-Chloro-3-(3-chloro-2-(2-(3-fluoropropyl)-8-methoxy-1,2,3,4-tetrahydroisoquinolin-6-yl)pyridin-4-yl)phenyl)-2-methoxypyridin-3-yl)methyl)-2,6-diazaspiro[3.3]heptan-2-yl)ethan-1-one] had an EC50 of 81.7 nM.

`CNCc1ccc(-c2nccc(-c3cccc(-c4ccc(CNC)c(OC)n4)c3C(F)(F)F)c2Cl)cc1OC` [Example 613, 1-(6-(3-(3-Chloro-2-(3-methoxy-4-((methylamino)methyl)phenyl)pyridin-4-yl)-2-(trifluoromethyl)phenyl)-2-methoxypyridin-3-yl)-N-methylmethanamine]: the EC50 is ≥ 10000 nM.

On to `CCOc1cc(-c2nccc(-c3cccc(-c4ccc(CNC5CCN(C(C)=O)CC5)c(OC)n4)c3Cl)c2Cl)cn2nc(CN3CC4(CNC(=O)C4)C3)nc12` [Example 586, 2-((6-(4-(3-(5-(((1-Acetylpiperidin-4-yl)amino)methyl)-6-methoxypyridin-2-yl)-2-chlorophenyl)-3-chloropyridin-2-yl)-8-ethoxy-[1,2,4]triazolo[1,5-a]pyridin-2-yl)methyl)-2,6-diazaspiro[3.4]octan-7-one], for which the EC50 amounted to 205 nM. This lies in the sub-micromolar range.

Regarding `COc1cc(-c2nccc(-c3cccc(-c4ccc(CNC5CCOCC5)c(OC)n4)c3Cl)c2C#N)ccc1CNC1CCOCC1` [Example 434, 4-(2-Chloro-3-(6-methoxy-5-(((tetrahydro-2H-pyran-4-yl)amino)methyl)pyridin-2-yl)phenyl)-2-(3-methoxy-4-(((tetrahydro-2H-pyran-4-yl)amino)methyl)phenyl)nicotinonitrile], the EC50 was found to be 37.8 nM.

As for `COc1cc(-c2nccc(-c3cccc(-c4ccc5c(CNC6CCN(C(C)=O)CC6)cn(C)c5n4)c3Cl)c2Cl)ccc1CNC1CCN(C(C)=O)CC1` [Example 246, 1-(4-((4-(4-(3-(3-(((1-acetylpiperidin-4-yl)amino)methyl)-1-methyl-1H-pyrrolo[2,3-b]pyridin-6-yl)-2-chlorophenyl)-3-chloropyridin-2-yl)-2-methoxybenzyl)amino)piperidin-1-yl)ethan-1-one], the response was half-maximal at 101 nM (EC50).

Take `COc1cc(-c2nccc(-c3cccc(-c4ccc(CN[C@H]5CC[C@H](O)CC5)c(OC)n4)c3Cl)c2Cl)ccc1CN1CC2(CNC(=O)C2)C1` [Example 515, 2-(4-(3-Chloro-4-(2-chloro-3-(5-((((1r,4r)-4-hydroxycyclohexyl)-amino)methyl)-6-methoxypyridin-2-yl)phenyl)pyridin-2-yl)-2-methoxybenzyl)-2,6-diazaspiro[3.4]octan-7-one]: the EC50 amounted to 17.8 nM.

Turning to `COc1cc(-c2nccc(-c3cccc(NC(=O)c4ccc(CNCCCF)cn4)c3Cl)c2Cl)ccc1CNCCCF` [Example 702, N-(2-Chloro-3-(3-chloro-2-(4-(((3-fluoropropyl)amino)methyl)-3-methoxyphenyl)pyridin-4-yl)phenyl)-5-(((3-fluoropropyl)amino)methyl)picolinamide], the EC50 was 266 nM. This EC50 is about 15-fold higher than that of the compound before.

Regarding `COc1cc(-c2nccc(-c3cccc(-c4ccc(CN(C)C5CCOCC5)c(OC)n4)c3Cl)c2Cl)ccc1CNC1CCN(C(C)=O)CC1` [Example 436, 1-(4-((4-(3-chloro-4-(2-chloro-3-(6-methoxy-5-((methyl(tetrahydro-2H-pyran-4-yl)amino)methyl)pyridin-2-yl)phenyl)pyridin-2-yl)-2-methoxybenzyl)amino)piperidin-1-yl)ethan-1-one], the response was half-maximal at 134 nM (EC50). Compared with the last compound, the EC50 is about 2-fold lower.

Regarding `COc1cc(-c2nccc(-c3cccc(-c4ccc(CNC5CCN(C(C)=O)CC5)c(OC)n4)c3Cl)c2Cl)ccc1CNCCC(=O)O` [Example 390, 3-((4-(4-(3-(5-(((1-acetylpiperidin-4-yl)amino)methyl)-6-methoxypyridin-2-yl)-2-chlorophenyl)-3-chloropyridin-2-yl)-2-methoxybenzyl)amino)propanoic acid], the EC50 was 56.6 nM.

`COc1cc(-c2nccc(-c3cccc(-c4ccc(CN(C)C5CCOCC5)c(OC)n4)c3Cl)c2Cl)ccc1CNC1CCOCC1` [Example 468, N-((6-(2-chloro-3-(3-chloro-2-(3-methoxy-4-(((tetrahydro-2H-pyran-4-yl)amino)methyl)phenyl)pyridin-4-yl)phenyl)-2-methoxypyridin-3-yl)methyl)-N-methyltetrahydro-2H-pyran-4-amine] showed an EC50 of 97.1 nM.
